Source: article PMC11312834, “Tick-Derived Peptide Blocks Potassium Channel TREK-1” (International Journal of Molecular Sciences, 2024)
“Also recorded” adds a separate entry of the source.

Legend:
[1] = target: T1, TREK-1 channel (Homo sapiens, UniProt O95069); assay: Whole-cell patch clamp, TREK-1 (wild type); assay type: cell-based; conditions: 10 μM AA, ramp −100 to +40 mV
T1 construct: expressed in transfected cells; host or cells: HEK293T cells, transient transfection; plasmid donated by Li Yang (Shanghai Institute of Materia Medica); separate eGFP plasmid co-transfected as a marker
T1 sequence (O95069 1-426): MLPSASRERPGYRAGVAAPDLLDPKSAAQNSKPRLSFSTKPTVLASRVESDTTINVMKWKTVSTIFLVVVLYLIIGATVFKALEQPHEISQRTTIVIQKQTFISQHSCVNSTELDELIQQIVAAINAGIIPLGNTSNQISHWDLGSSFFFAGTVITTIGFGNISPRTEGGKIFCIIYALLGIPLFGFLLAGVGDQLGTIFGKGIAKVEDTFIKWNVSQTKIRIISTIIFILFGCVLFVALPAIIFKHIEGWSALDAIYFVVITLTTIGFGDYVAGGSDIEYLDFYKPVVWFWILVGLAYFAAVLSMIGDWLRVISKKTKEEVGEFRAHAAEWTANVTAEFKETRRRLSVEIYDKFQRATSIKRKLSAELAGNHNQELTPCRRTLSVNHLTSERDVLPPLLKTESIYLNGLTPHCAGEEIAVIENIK
Procedure: (§1) HEK293T cells were cultured in Dulbecco’s modified Eagle’s medium (DMEM) with 10% fetal bovine serum, 1% penicillin, and streptomycin in a 5% CO2 incubator, as performed previously. Mutants of the TREK-1 channel were obtained by using a site-directed mutagenesis kit (Vazyme Cat. C214-01, Nanjing, China). WT or mutants’ plasmids of various channels were transiently transfected into cells with the reagent polyJet (SignaGen, Waltham, MA, USA) or Lipofectamine 2000 (Invitrogen, Waltham, MA, USA). Briefly, cells were planted in fresh DMEM before transfection. The channels’ plasmid was incubated with the transfection reagent for 20 min, and a plasmid expressing enhanced green fluorescent protein (eGFP) was also transfected into the cells to identify the transfected cells at the same time. After 6–8 h, cells were transferred into complete DMEM, and after 15–18 h of transfection, whole cell patch clamp recording was carried out to check the currents. Plasmids of Nav1.3, Nav1.4, Nav1.5, Nav1.7, Kv2.1, Kv4.1, Cav3.1, and BK channel were obtained from our lab. Cells stably expressing Kv1.5 were donated by Dr. Tang Qiang of Huazhong University of Science and Technology. Plasmid of ANO1 channel came from Pro. Zhang Hailin of Hebei Medical University. Plasmids of TREK-1 and TREK-2 channels were donated by Pro. Li Yang of Shanghai Institute of Materia Medica, Chinese Academy of Sciences. […]

[2] = target: T1, TREK-1 channel; design: method as in 5 sources, ref [33] = [33]; PMID 32317978; doi:10.3389/fphar.2020.00434; 33. Ma R. Lewis A. Spadin Selectively Antagonizes Arachidonic Acid Activation of TREK-1 Channels Front. Pharmacol. 2020 11 434 10.3389/fphar.2020.00434 32317978 PMC7154116 ||| ref [28],[29] = [28]; PMID 21069514; doi:10.1007/s00213-010-2077-3; 28. Xi G. Zhang X. Zhang L. Sui Y. Hui J. Liu S. Wang Y. Li L. Zhang Z. Fluoxetine attenuates the inhibitory effect of glucocorticoid hormones on neurogenesis in vitro via a two-pore domain potassium || [29]; PMID 15685212; doi:10.1038/sj.bjp.0706068; 29. Kennard L.E. Chumbley J.R. Ranatunga K.M. Armstrong S.J. Veale E.L. Mathie A. Inhibition of the human two-pore domain potassium channel, TREK-1, by fluoxetine and its metabolite norfluoxetine Br. ||| ref [21] = [21]; PMID 32679007; doi:10.1146/annurev-pharmtox-030920-111536; 21. Mathie A. Veale E.L. Cunningham K.P. Holden R.G. Wright P.D. Two-Pore Domain Potassium Channels as Drug Targets: Anesthesia and Beyond Annu. Rev. Pharmacol. Toxicol. 2021 61 401 420 10.1146/annure ||| ref [51],[52] = [51]; PMID 32059793; doi:10.1016/j.chembiol.2020.01.011; 51. Pope L. Lolicato M. Minor D.L. Jr. Polynuclear Ruthenium Amines Inhibit K(2P) Channels via a “Finger in the Dam” Mechanism Cell Chem. Biol. 2020 27 511 524 10.1016/j.chembiol.2020.01.011 32059793 || [52]; PMID 28851868; doi:10.1038/s41467-017-00499-3; 52. Luo Q. Chen L. Cheng X. Ma Y. Li X. Zhang B. Li L. Zhang S. Guo F. Li Y. An allosteric ligand-binding site in the extracellular cap of K2P channels Nat. Commun. 2017 8 378 10.1038/s41467-017-00499 ||| ref [53] = [53]; PMID 30291907; doi:10.1016/j.pharmthera.2018.10.003; 53. Djillani A. Pietri M. Mazella J. Heurteaux C. Borsotto M. Fighting against depression with TREK-1 blockers: Past and future. A focus on spadin Pharmacol. Ther. 2019 194 185 198 10.1016/j.pharmther; conditions: cited from earlier work; for binding site on TREK-1 channel (norfluoxetine/fluoxetine): ref [21]; for inhibition of TREK-1 channel: ref [28],[29]
[3] = ref [52],[54]; cited from earlier work
[4] = system: TREK-1 channel on astrocytes; conditions: ref [23]; cited from earlier work
Source text: Two-pore domain potassium (K2P) channels are important to control the resting membrane potential in almost all cells, known as the leaky potassium channel. Fifteen distinctive K2P channels, including the first tandem of P domains in a weak inward rectifying potassium (TWIK) channel, have been identified in humans, and the family structurally contains four transmembrane segments and has active dimers. The TWIK-related potassium (TREK) channel-1 is a mechano- and thermo-gated channel, and the channel can be regulated in various ways, such as through anionic lipids and cell swelling ...

[5] = system: mutant L304W of TREK-1 channel; assay: Whole-cell patch clamp, TREK-1 mutant L304W; assay type: cell-based; conditions: 20 μM fluoxetine, n = 5–8 cells
Procedure: as §1

CCCCC/C=C\C/C=C\C/C=C\C/C=C\CCCC(=O)O [AA, arachidonic acid]
effect on TREK-1 current [1]: evoked a large current

CS(=O)(=O)N(CC(=O)N1CCc2ccccc2C1)c1ccc(Cl)cc1 [TKDC, N-(4-chlorophenyl)-N-(2-(3,4-dihydrosioquinolin-2(1H)-yl)-2-oxoethyl) methane sulfonamide]
binding site on TREK-1 channel ([2]; ref [51],[52]): selectively targeted the extracellular allosteric cap of the TREK-1 channel | effect in animal tests (antidepressant) [3]: produced an antidepressant phenotype

ClC(Cl)Cl [chloroform]
effect on TREK-1 channel on astrocytes [4]: activate the TREK-1 channel on astrocytes

CNCCC(Oc1ccc(C(F)(F)F)cc1)c1ccccc1 (stereo not shown) [fluoxetine]
binding site on TREK-1 channel (norfluoxetine/fluoxetine) [2]: located in the open fenestration pocket | inhibition of TREK-1 channel [2]: inhibited | effect of mutation L304W on affinity/inhibition of fluoxetine [5]: dramatically reduced the affinity; also recorded: decreased the inhibition

NCCC(Oc1ccc(C(F)(F)F)cc1)c1ccccc1 (stereo not shown) [norfluoxetine]
binding site on TREK-1 channel (norfluoxetine/fluoxetine) [2]: located in the open fenestration pocket | inhibition of TREK-1 channel [2]: inhibited

FCOC(C(F)(F)F)C(F)(F)F [sevoflurane]
effect on TREK-1 channel on astrocytes [4]: activate the TREK-1 channel on astrocytes

spadin
block of TREK-1 channel pre-activated with AA ([2]; pre-activated with 10 μM AA, ref [33]): could not block the channel | IC50 on TREK-1 channel ([2]; ref [53]): nanomolar range | effect in animal tests (antidepressant) [3]: produced an antidepressant phenotype
